These are literature values, as cited in patent publication US20150361500A1, “BIOMARKERS FOR DIAGNOSIS AND TREATMENT OF ACNE VULGARIS” (DermTech International, priority 2013, published 2015).

The test system of this data set is acne.

Take `O=C(OOC(=O)c1ccccc1)c1ccccc1` [Benzoyl peroxide]: the tolerability result (2.5% concentration compared with 5 and 10%) is “usually better tolerated”. For the same molecule, for the setting “5 and 10% concentrations compared with 2.5%”, the “effectiveness in acne treatment” value is reported as “not significantly more effective”. In addition, the skin reactions entry (gel or cream applied to affected areas) was “commonly causes initial dryness and sometimes irritation”.
